According to US7601884B2, “Method of producing cloned animals by demecolcine treatment” (KNU - Industry Cooperation Foundation, priority 2007, dated 2009):

Key:
[1] = test system: recipient pigs transferred with SCNT embryos; assay: Delivery rate and number of pigs born alive after in vivo transfer of DEM-treated SCNT embryos; set-up: species or system pig
From the text: For in vivo transfer of the NT embryos, a naturally-estrous gilt was used as a recipient animal. On the day of the production of the NT embryos, a standing estrus pig was subjected to inhalation anesthesia, and using a common method, cut open to expose the ovaries and oviducts. After confirming the presence of follicle, ovulation and corpus luteum in the ovary, 90 to 160 SCNT embryos activated and treated with DEM were transferred into the oviduct by fimbriae. The recipient pig into which the NT embryos were transferred was monitored to confirm whether or not it was estrus, and a pregnancy test was taken every two weeks, 4 weeks after transfer of the fertilized embryos. When the recipient pig gave birth to live, SCNT embryo-derived offspring, its period of pregnancy, the number of live offspring, their weight, and morphological abnormalities found in any of the live offspring were monitored and recorded.
The effect of DEM treatment to the SCNT embryos on delivery rate and the number of pigs born alive was surveyed. Each group of SCNT embryos (107-160/a recipient pig), wherein one was treated with DEM according to Exemplary Embodiment 4 and the other (102-165/a recipient pig) was not treated with DEM, was transferred into 8 to 10 recipient pigs monitored to see whether or not they were estrus. Starting 4 weeks after transfer of the fertilized embryos, they were given pregnancy tests every 2 weeks. When they gave birth to live, SCNT embryo-derived offspring, the period of pregnancy, the number of live offspring, their weight and any morphological abnormalities were monitored and recorded. Further, the number of recipient pigs having live offspring and the number of pigs born alive in a litter were surveyed.

SCNT porcine embryos = assay: In vitro development of SCNT porcine embryos after DEM treatment; assay type: cell-based, pig
Method: (§1) After the activation stimulation, the activated embryos were incubated in NCSU-23 culture medium containing 0.4 μg/ml demecolcine (DEM) (Sigma-Aldrich Corp., USA) for 4 hours.
With the same method as in Exemplary Embodiment <3-4>, the fused NT embryos were electrically activated, but not treated with DEM.
After activation stimulation, the SCNT embryos were cultured in in vitro culture medium for 6 days in an atmosphere of 5% CO2, 5% O2 and 90% N2 gas.
(§2) The SCNT embryos of Exemplary Embodiment 3 and Comparative Example 1 were cultured in vitro with an atmosphere of 5% CO2, 5% O2 and 90% N2 gases. On the second and sixth days of the in vitro culture, their division rates and development to blastocysts were monitored. Further, the blastocysts were stained with bis-benzimide to estimate the number of cells under a fluorescent microscope.

SCNT embryos [2] = assay: In vitro development of SCNT embryos according to time of DEM treatment; assay type: cell-based, pig
Method: as §2
Change in in vitro development of SCNT embryos depending on the time of DEM treatment was surveyed. The SCNT embryos activated according to Exemplary Embodiment <3-4> were incubated in NCSU-23 culture medium containing 0.4 μg/ml DEM for 2, 4 and 6 hours, respectively, and cultured in vitro by the same method as described in Experimental Example 1, followed by observation of their development to blastocysts.

SCNT embryos [3] = assay: Production of pseudo-pronuclei of SCNT embryos after DEM treatment; assay type: cell-based, pig; details: 0.4 μg/ml DEM for 4 hours
Method: as §1
The oocytes treated with DEM of Exemplary Embodiment 3 or the oocytes of Comparative Example 1 were cultured in vitro for 7 hours, activated, fixed for 11 hours, and stained to estimate the number of pseudo-pronuclei and their production rate. The fixation of the oocytes was performed using a whole-mount method. 10 to 20 oocytes were placed on a slide glass and covered with a cover glass. The oocytes were fixed in a fixative (25% acetic acid in ethanol) at 33° C. for 10 to 20 minutes. The fixed oocytes were stained with 1% orcein (in 45% acetic acid solution) and then the pseudo pronuclei were observed by a phase microscope.

[4] = recipient pig transferred with SCNT embryos treated with DEM
[5] = 0.4 μg/ml DEM for 2 hrs, of N=141
[6] = 0.4 μg/ml DEM for 4 hrs, of N=142
[7] = 0.4 μg/ml DEM for 6 hrs, of N=142

Q: How did the “No. of Pigs/Litter” value ([1]; SCNT embryos treated with DEM) turn out when `CN[C@H]1CCc2cc(OC)c(OC)c(OC)c2-c2ccc(OC)c(=O)cc21` [DEM, demecolcine] was run?
A: The value was 3.0.

Q: And the “No. of Pigs Born Alive” value ([1]; SCNT embryos treated with DEM, 8 recipient pigs)?
A: Its value is 12.

Q: And the “Recipient Pigs Delivered(%)” value ([1]; SCNT embryos treated with DEM, 107-160 per recipient pig)?
A: Its value is 50.0%.

Q: And the “No. of Recipient Pigs Delivered” value ([1]; SCNT embryos treated with DEM, 107-160 per recipient pig, of N=8 recipients)?
A: The value was 4.

Q: And the “delivery rate versus Comparative Example 1 (no DEM)” value [1, 4]?
A: The value was “significantly increased”.

Q: What about the “number of pigs born alive in a litter versus Comparative Example 1 (no DEM)” value [1, 4] of the same molecule?
A: Its value is “significantly increased”.

Q: And the “≧2-Cell(%)” value (SCNT porcine embryos; 0.4 μg/ml DEM for 4 hours after activation, second day of in vitro culture)?
A: Its value is 76.8%.

Q: What about the “≧2-Cell, number of embryos” value (SCNT porcine embryos; 0.4 μg/ml DEM for 4 hours after activation, second day of in vitro culture, of N=187) of the same molecule?
A: Its value is 144.

Q: And the “Blastocyst(%)” value (SCNT porcine embryos; 0.4 μg/ml DEM for 4 hours after activation, sixth day of in vitro culture)?
A: The value was 27.3%.

Q: And the “Blastocyst, number of embryos” value (SCNT porcine embryos; 0.4 μg/ml DEM for 4 hours after activation, sixth day of in vitro culture, of N=187)?
A: Its value is 51.

Q: And the “No. of Cells/Blastocysts” value (SCNT porcine embryos; 0.4 μg/ml DEM for 4 hours, bis-benzimide staining)?
A: Its value is 39.5.

Q: And the “development to blastocysts versus Comparative Example 1 (not treated with DEM)” value (SCNT porcine embryos; embryos treated with DEM, then cultured in vitro)?
A: The value was “significantly improved”.

Q: What about the “change in in vitro development of the SCNT embryos according to the time of DEM treatment” value (SCNT embryos [2]; 0.4 μg/ml DEM for 2, 4 and 6 hours) of the same molecule?
A: The value was “wasn't a significant change”.

Q: And the “Blastocysts (%)” value (SCNT embryos [2]; 0.4 μg/ml DEM for 2 hrs)?
A: The value was 24.8%.

Q: And the “No. of Cells/Blastocysts” value (SCNT embryos [2]; 0.4 μg/ml DEM for 2 hrs)?
A: The value was 35.3 ± 2.1.

Q: And the “≧2 cells (%)” value (SCNT embryos [2]; 0.4 μg/ml DEM for 2 hrs)?
A: Its value is 84.4%.

Q: What about the “Blastocysts, number of embryos” value (SCNT embryos [2]; [5]) of the same molecule?
A: Its value is 35.

Q: And the “≧2 cells, number of embryos” value (SCNT embryos [2]; [5])?
A: Its value is 119.

Q: What about the “Blastocysts (%)” value (SCNT embryos [2]; 0.4 μg/ml DEM for 4 hrs) of the same molecule?
A: The value was 29.6%.

Q: And the “No. of Cells/Blastocysts” value (SCNT embryos [2]; 0.4 μg/ml DEM for 4 hrs)?
A: Its value is 35.2 ± 1.8.

Q: What about the “≧2 cells (%)” value (SCNT embryos [2]; 0.4 μg/ml DEM for 4 hrs) of the same molecule?
A: Its value is 80.3%.

Q: And the “Blastocysts, number of embryos” value (SCNT embryos [2]; [6])?
A: The value was 42.

Q: What about the “≧2 cells, number of embryos” value (SCNT embryos [2]; [6]) of the same molecule?
A: Its value is 114.

Q: What about the “Blastocysts (%)” value (SCNT embryos [2]; 0.4 μg/ml DEM for 6 hrs) of the same molecule?
A: Its value is 25.4%.

Q: What about the “No. of Cells/Blastocysts” value (SCNT embryos [2]; 0.4 μg/ml DEM for 6 hrs) of the same molecule?
A: Its value is 30.8 ± 2.7.

Q: And the “≧2 cells (%)” value (SCNT embryos [2]; 0.4 μg/ml DEM for 6 hrs)?
A: The value was 78.2%.

Q: What about the “Blastocysts, number of embryos” value (SCNT embryos [2]; [7]) of the same molecule?
A: The value was 36.

Q: And the “≧2 cells, number of embryos” value (SCNT embryos [2]; [7])?
A: Its value is 111.

Q: What about the “in vitro development of SCNT embryos, comparison of treatment times” value (SCNT embryos [2]; 4-hour incubation period with 0.4 μg/ml DEM) of the same molecule?
A: Its value is “highest level of growth”.

Q: And the “1PPN (one pseudo pronucleus) (%)” value (SCNT embryos [3])?
A: Its value is 83.7%.

Q: And the “Multi-PPN (2 or more pseudo pronuclei) (%)” value (SCNT embryos [3])?
A: The value was 9.3%.

Q: What about the “Others(%)” value (SCNT embryos [3]) of the same molecule?
A: The value was 7.0%.

Q: And the “1PPN (one pseudo pronucleus), number of embryos” value (SCNT embryos [3]; of N=43)?
A: Its value is 36.

Q: What about the “Multi-PPN (2 or more pseudo pronuclei), number of embryos” value (SCNT embryos [3]; of N=43) of the same molecule?
A: Its value is 4.

Q: What about the “Others, number of embryos” value (SCNT embryos [3]; of N=43) of the same molecule?
A: Its value is 3.
